# Source: PMC6934184, “Selective DNA-PKcs inhibition extends the therapeutic index of localized radiotherapy and chemotherapy” (The Journal of Clinical Investigation, 2019)
# Target: T1, STK22D (TSSK1) (Homo sapiens, UniProt Q9BXA7)
# T1 construct: purchased Thermo Fisher Scientific (Life Technologies) SelectScreen
# Assay: SelectScreen Z'LYTE
# Type: biochemical
# Outline: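 NU5455 was profiled across the SelectScreen Broad panel of kinase activity and binding assays. Z'LYTE reactions such as CSF1R ran at apparent Km ATP, while the Adapta CAMK1 assay used ATP listed as 10. Values are given as percent.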
# T1 sequence (Q9BXA7 whole entry): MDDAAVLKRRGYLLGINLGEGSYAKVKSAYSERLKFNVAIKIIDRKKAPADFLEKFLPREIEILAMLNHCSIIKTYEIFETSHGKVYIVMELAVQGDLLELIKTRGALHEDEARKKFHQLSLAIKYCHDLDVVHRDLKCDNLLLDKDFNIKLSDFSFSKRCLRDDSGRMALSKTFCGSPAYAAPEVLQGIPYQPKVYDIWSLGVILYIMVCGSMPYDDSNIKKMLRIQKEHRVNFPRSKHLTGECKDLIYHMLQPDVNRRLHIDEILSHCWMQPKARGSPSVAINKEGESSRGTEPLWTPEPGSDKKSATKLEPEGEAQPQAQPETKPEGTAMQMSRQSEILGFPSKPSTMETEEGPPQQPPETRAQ
smiles,measurement,value
CN(C(=O)CN1CCOCC1)c1ccc2sc3c(-c4cccc5c(=O)cc(N6CC7CCC(C6)O7)oc45)cccc3c2c1 [NU5455],inhibition at 1 µM,4.2%
